Measured values from publication PMC8296708, “The pan HDAC inhibitor Givinostat improves muscle function and histological parameters in two Duchenne muscular dystrophy murine models expressing different haplotypes of the LTBP4 gene” (Skeletal Muscle, 2021).

How the values were obtained:
Format in all cases: in vivo, mouse (D2.B10-Dmd^mdx/J)
D2.B10 mice [1] = test: Grip strength test (FNmax) in D2.B10 mice; settings: for FNmax from day 62 onwards: Givinostat 5, 10 and 37.5 mg/kg, vs vehicle; for FNmax from day 62 onwards / FNmax from day 21 until days 49-62: prednisone 1 mg/kg i.p. weekly; for FNmax from day 21 until days 49-62: Givinostat 10 and 37.5 mg/kg
Excerpt: For the efficacy studies, C57BL/10 J (Stock No: 000665) wild type (wt) and C57BL/10ScSn-Dmd^mdx/J (Stock No: 001801) 7–8-week-old male mice, DBA/2J wt (Stock No: 000671), and D2.B10-Dmd^mdx/J (Stock No: 013141) 6–7-week-old male mice were purchased from The Jackson Laboratories (Bar Harbor, Maine, USA). After 5 days of acclimatization in the animal facility, mice were randomized into different treatment groups based on their BW. C57BL/10J wt mice were assigned to the naive wt group (healthy mice that received no treatment, but were subjected to functional tests), whereas mdx mice were assigned to the following groups (9 mice/group; 4–5 mice/cage): naive mdx (mice that received no treatment, but were subjected to functional tests), vehicle (0.5% methylcellulose, p.o.), and Givinostat (0.1, 0.3, 1, 5, 10, 25, and 37.5 mg/kg, p.o.). DBA/2J mice were assigned to the naive wt group (healthy mice that received no treatment, but were subjected to functional tests), whereas D2.B10 mice were assigned to the following groups (12–13 mice/group; 4–5 mice/gage): vehicle (filtered tap water, p.o.), Givinostat (1, 5, 10, and 37.5 mg/kg, p.o.), prednisone 1 mg/kg, and Deflazacort 1 mg/kg (i.p.).
In the efficacy studies, Givinostat powder (ITF2357) was suspended in 0.5% methylcellulose (Sigma-Aldrich) and administered p.o. (by gavage) at the doses of 0.1, 0.3, 1, 5, 10, 25, and 37.5 mg/kg qdx5x15weeks (administration volume per mouse: 10 mL/kg) in mdx mice (see Additional Figure 1A). Vehicle-treated mdx mice received 0.5% methylcellulose suspension. Givinostat suspension was stored at + 4 °C, and it was freshly prepared every 7 days. Probably due to the impairment of their tongue and masticatory muscles, the oral gavage procedure turned out to be difficult to perform, and chronic treatment of D2.B10 mice by this route was considered to bear a high risk of damaging the esophagus. For this reason, Givinostat was administered in the drinking water. Givinostat was dissolved in filtered tap water and was administered in drinking water (throughout 24 h) for 105 days at the dose of 1, 5, 10, and 37.5 mg/kg/day, according to a daily estimate of water consumption of 4 ml/mouse/day. Water consumption was weekly monitored throughout the entire duration of the study weighing the bottle of each cage (maximum 4 mice per cage). Prednisone and Deflazacort powder (Sigma-Aldrich) was dissolved in 2% DMSO (Sigma-Aldrich) and diluted in sterile saline on injection days. Both drugs were administered weekly (for 15 weeks) by i.p. injection at the dose of 1 mg/kg in a volume of 10 mL/kg. Givinostat and steroid treatments started on days 7 and 9 of the experimental plan, respectively (see Additional Figure 1B). All mice were monitored daily and tolerability was evaluated on the basis of BW and clinical signs.
In both efficacy studies, the effectiveness of treatments was evaluated every week by measuring the forelimb strength by a grip strength meter (Ugo Basile SRL, Italy). BW of mdx (see Additional Figure 2) and D2.B10 mice (see Additional Figure 3) was also measured in order to normalize the absolute grip strength of each mouse with respect to its BW. The protocol provides 5 measurements for each mouse (the procedure was compliant with the standard operating procedures of TREAT–NMD Neuromuscular Network). The highest recorded value of maximal normalized strength (FNmax) obtained for each mouse at all the time points (from T0 to T15) was used for further analysis.
After taking baseline readings for behavioral assays (FNmax and distance run by the animals), mice were re-randomized based on these two parameters, also considering the previous randomization performed on their BW.
The grip strength and run to exhaustion tests were performed during the light-cycle phase, in the early hours of the morning (8:00–11:30 am). […]

D2.B10 mice [2] = test: Muscle fibrosis by Sirius Red staining in D2.B10 mice; settings: for Reduction of fibrosis in DIA: T8; for Reduction of fibrosis in TA: T8, Givinostat 37.5 mg/kg, steroids 1 mg/kg, vs vehicle; for Effect on fibrosis in GAS: T16; for Efficacy on fibrosis in DIA: T16, Givinostat 37.5 mg/kg, prednisone
Excerpt: (§1) Tibialis anterior (TA), gastrocnemius (GAS), DIA, and heart were collected from mice maintained under isoflurane anesthesia and sacrificed by cervical dislocation. These muscles were collected from C57BL/10J wt and mdx (5 mice/group) at the end of treatments and from DBA/2J wt and D2.B10 mice (5 mice/group) at two different time points to be examined by a pathologist (for more details see Additional Table 1). Due to the results obtained by the functional tests, muscles from only some treatment groups were analyzed in both DMD models (see Additional Table 1). All the collected muscles were fixed in 10% buffered formalin solution (Bio-optica, Milan, Italy) at + 4 °C for at least 48 h. After fixation, muscular samples were transversely trimmed, caged, and paraffin embedded overnight with an Automated Vacuum Tissue Processor Floor (ETP, Histo-Line Laboratories) and included in paraffin blocks. Serial transverse cross-sections (4 μm thick) were cut with a microtome (Leica RM 2255), collected onto uncoated glass slides, and stained using a standard protocol for hematoxylin and eosin (Mayer hematoxylin & Aqueous G Eosin 1%, Bio-Optica) and Sirius Red staining (Direct Red 80, Sigma-Aldrich). For the image analysis and quantitation, hematoxylin and eosin- and Sirius Red-stained slides were examined with an Olympus BX51 light microscope. From each sample, 1 to 3 random microphotographs at the magnification of × 4 and × 10 (TA, GAS and heart) or × 20 (DIA) were collected using Image-Pro Plus system. The digital images were processed by a pathologist using ImageJ software (U.S. National Institutes of Health, Bethesda, MD, USA). To quantify CSA and centralized nuclei (%) on hematoxylin and eosin-stained sections, one hundred myofibers were manually measured for each muscle/mouse using a tablet pen (Wacom Intruos) and analyzed by the ImageJ software after a linear calibration of 150 μm. The fibrotic area, corresponding to the area stained in red, was compared to the total area of the tissue section, and the results were expressed as percentage fibrosis. The % of fibrosis of muscles in the different treatment groups was expressed by averaging the three values obtained from each muscle.

D2.B10 mice [3] = test: Centralized nuclei (%) in muscles of D2.B10 mice; settings: Givinostat 37.5 mg/kg; for Nuclear centralization in TA: prednisone (vehicle 21.2 ± 1.0); for Nuclear centralization in GAS: prednisone (vehicle 25.1 ± 1.5)
Excerpt: as §1

SMILES	Effect of steroid on FNmax in comparison (D2.B10 mice [1]; 1 mg/kg i.p. weekly, all the treatment period)	FNmax from day 62 onwards (D2.B10 mice [1])	FNmax from day 21 until days 49-62 (D2.B10 mice [1])	Effect of steroid on fibrosis, summary (D2.B10 mice [2]; 1 mg/kg i.p. weekly)	Reduction of fibrosis in DIA (D2.B10 mice [2])	Reduction of fibrosis in TA (D2.B10 mice [2])	Reduction of fibrosis in GAS (D2.B10 mice [2]; T8, vs vehicle)	Effect on fibrosis in GAS (D2.B10 mice [2])	Efficacy on fibrosis in DIA (D2.B10 mice [2])	Nuclear centralization in TA (D2.B10 mice [3]) [%]	Nuclear centralization in GAS (D2.B10 mice [3]) [%]	Lowest dose with significant effect on FNmax from day 21 to day 104 (D2.B10 mice [1]) [mg/kg]	Effect on FNmax (D2.B10 mice [1]; 1-37.5 mg/kg/day in drinking water)	Time interval of significant FNmax improvement (D2.B10 mice [1]; Deflazacort 1 mg/kg i.p. weekly, Givinostat 1 mg/kg)	Difference in FNmax, Givinostat 37.5 mg/kg vs Deflazacort (D2.B10 mice [1]; days 90 and 97, p < 0.05 and p < 0.01)	Dose of maximal efficacy on FNmax (D2.B10 mice [1]; drinking water) [mg/kg]	Significant differences in FNmax, Givinostat 37.5 mg/kg versus prednisone (D2.B10 mice [1]; p < 0.05)
C[C@]12C=CC(=O)C=C1CC[C@@H]1[C@@H]2C(=O)C[C@@]2(C)[C@H]1CC[C@]2(O)C(=O)CO [prednisone]	comparable to that of Givinostat 5 e 10 mg/kg	remained significantly elevated until day 104	increased the FNmax of D2.B10-treated mice to that of wt healthy mice	significantly reduced fibrosis in TA, GAS, and DIA	~45%	about 22%	about 26%	No significant effect	lost	22.0 ± 2.4	21.6 ± 1.7						
CCN(CC)Cc1ccc2cc(COC(=O)Nc3ccc(C(=O)NO)cc3)ccc2c1 [Givinostat]		remained significantly elevated until day 104	increased the FNmax of D2.B10-treated mice to that of wt healthy mice		about 33%	about 22%		No significant effect	lost	19.8 ± 2.4	22.4 ± 2.1	10	dose-dependent	from day 42 to days 90/104	a significant difference was also seen	37.5	observed only at days 90 and 97
